Values of other authors as cited in patent publication US20040087576A1, “Antimnemonic therapy for hypermemory syndromes” (priority 2002, published 2004).

Columns and labels:
[1] = test system: reconsolidation of retrieved memories; details: in vivo
[2] = test system: conditioned fear; details: in vivo
[3] = test system: rat fear-conditioning; details: rats
[4] = patients; doses of 100-500 mg/day
[5] = test system: emotion-related memory; details: rats; post-training administration
[6] = test system: PTSD symptoms; details: patients; 10-day course, 40 mg four times daily, versus placebo; assessed 3 months after the trauma

NC(CCCP(=O)(O)O)C(=O)O (stereo not drawn) [AP5]
amnesia by blocking the reconsolidation of retrieved memories [1]: induce amnesia by blocking the reconsolidation of retrieved memories

N[C@@H]1CONC1=O [D-cycloserine]
extinction of conditioned fear [2]: facilitate the extinction of conditioned fear

C[C@]12N[C@H](Cc3ccccc31)c1ccccc12 [MK-801]
amnesia by blocking the reconsolidation of retrieved memories [1]: induce amnesia by blocking the reconsolidation of retrieved memories

COc1ccc(C[C@H]2NC[C@H](O)[C@H]2OC(C)=O)cc1 [anisomycin]
reconsolidation of reactivated memories ([3]; cue 1 or 14 days after conditioning, drug immediately after cue, tested 24 hours later): blocked reconsolidation of reactivated memories | fear response to the cue ([3]; cue presented a further twenty four hours after treatment): did not display the fear response

CC12CC3CC(C)(C1)CC(N)(C3)C2 [memantine]
tolerability [4]: well tolerated

CC(C)NCC(O)COc1cccc2ccccc12 (stereo not drawn) [propranolol]
consolidation of emotion-related memory [5]: blocked the consolidation of emotion-related memory | ratings of PTSD symptoms [6]: slightly, but significantly, lower | amnesia by blocking the reconsolidation of retrieved memories [1]: induce amnesia by blocking the reconsolidation of retrieved memories
